Laboratory results published in patent US20080221134A1, “8-ALKYNYLXANTHINES AND DERIVATIVES” (priority 2006, published 2008).

Experiments:
[1] = system: rats; test: Modified Irwin test (FOB, SAC, FU); assay type: in vivo, rat; parameters: key to Hypersensitivity / Temperature / Respiration / Tremor / Stereotypies / Patterns Activity / Motor Coordination / Catalepsy: +++ = very strong effect.; ++ = strong effect.; + = average effect.; 0 = no effect.; − = negative effect; settings: modified Irwin test, 0.01-30 mg/kg, compressed outcome
Excerpt: In this study the compounds of the present invention were screened for basal behavioural, autonomic, neurological and toxicological side-effects in rats. For this purpose, a functional observational battery (FOB) in form of an Irwin test (Irwin S., Psychopharmacologia, 1968, 13, 222; 1968; Warburton D. M. Psychopharmacology, 2002, 163, 4; Haggerty G. C. et al., J. Amer. Coll. Toxicol., 1991, 10, 677; Mattsson J. L. et al., J. Amer. Coll. Toxicol., 1996, 15, 239, all references are herein incorporated by reference) modified and validated by the Test Facility was used. Each test compound was tested at eight doses (0.01, 0.03, 0.1, 0.3, 1.0, 3.0, 10.0 and 30.0 mg/kg). All compounds were dissolved in DMSO (administration volume 1 ml/kg). Each dose group included three animals. Two vehicle groups (DMSO and Labrasol) served as negative controls.
At the first day of each test week all test compound solutions necessary for the test (1-2 weeks) were prepared by means of one dilution series starting with the highest concentration. All test compounds dissolved in DMSO were administered in a volume of 1 ml/kg. DMSO-containing solutions were stored at −18° C. All solutions were melted for administration at room temperature 16-20 hours before the start of the test.
Study design and time schedule:
4-7 days: Acclimatization and handling of the animals 1 day: Test day with • (a) Four repeated functional observational battery (FOB): 30 min, 60 min, 120 min, 180 min following compound administration • (b) Short animal check (SAC): 300 min following compound administration 1 day: Follow-up observation (FU): • 24 h (1440 min) following compound administration.
In all experimental parts, an experienced ethologist used lists of predefined methods and behavioural parameters in order to rate the behaviour of the animal (see table 7 for functional observational battery (FOB), table 8 for short animal check (SAC) and table 9 for follow-up observation (FU).
A statistical evaluation of the data was performed that enabled an assessment of the compound's effects on each parameter. Dose-response relationships are not necessarily linear. It was not clear a priori whether the response would be dose-dependent or whether low, medium or high dose effects would occur. Therefore, the data were correlated against a set of different numeric models of theoretical dose-response curves. For this kind of evaluation the measurement times were not differentiated. An average value over all measurement times was calculated for each animal. This value was taken as one measurement within the observation vector. The complete set of parameters measured for the animal (each one averaged over time) formed the observation vector. Each dose was then represented by three observation vectors (3 animals per dose). The effects of all doses were compared with vehicle (DMSO) as the observation vectors for the zero dose. A common pool of 24 animals for the zero dose was used for all compounds to be tested. For each test compound the obtained values for each parameter together with values from the pool of vehicle-treated (DMSO) animals were then correlated with theoretical dose-response models (analysis profiles). Since 8 doses were be used, there were 8 models, each assuming that the maximum compound effect occurred at one of these doses. Effects of other doses were assumed to be attenuated with a linearly descending slope of the theoretical curve. Correlation values and statistical significance of regression were then calculated. An error probability of p<0.05 (two-tailed testing) was taken as significance level. Non-significant regressions were neglected. In consequence, each parameter was assessed as not affected or affected by the compound in a dose-response relationship according to type 1 (low dose effect) up to type 8 (high dose effect). Dose response is maximal for the effect with the greatest absolute correlation coefficient. […]

[2] = target: Adenosine A2A (Homo sapiens, UniProt P29274); test: Functional assay (luciferase reporter), inhibition of A2A adenosine receptor; assay type: cell-based; parameters: expressed in transfected cells; host or cells: CHO-DUKX-CRE-A2A-19 (CHO-DUKX, vector pCineo); settings: for IC50: CHO-DUKX-CRE-A2A-19 cells, 60 nM NECA, read-out: A2A AR IC50; for A2A AR Imax: Imax in % of the corresponding antagonist; for Ki: Ki=IC50/(1+agonist concentration/EC50), read-out: A2A AR Ki
Chain of Adenosine A2A (P29274 whole entry): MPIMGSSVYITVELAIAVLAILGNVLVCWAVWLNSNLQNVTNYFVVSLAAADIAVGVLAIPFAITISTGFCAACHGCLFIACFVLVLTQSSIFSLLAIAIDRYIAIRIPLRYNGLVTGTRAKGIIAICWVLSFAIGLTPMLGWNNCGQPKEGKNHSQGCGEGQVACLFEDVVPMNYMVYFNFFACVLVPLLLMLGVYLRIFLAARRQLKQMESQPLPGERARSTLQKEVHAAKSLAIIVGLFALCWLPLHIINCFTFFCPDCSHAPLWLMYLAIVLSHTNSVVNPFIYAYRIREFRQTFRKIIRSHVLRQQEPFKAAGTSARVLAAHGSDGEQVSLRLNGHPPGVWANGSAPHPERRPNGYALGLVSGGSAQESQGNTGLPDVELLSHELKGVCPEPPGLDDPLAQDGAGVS

[3] = target: T1, Adenosine A1 (Homo sapiens, UniProt P30542); test: Functional assay (luciferase reporter), inhibition of A1 adenosine receptor; assay type: cell-based; parameters: expressed in transfected cells; host or cells: CHO-DUKX-SRE-Luci-A1-44 (CHO-DUKX, vector pCineo); settings: for A1 AR Imax: Imax in % of the corresponding antagonist (CPX)
T1 sequence (P30542 1-326): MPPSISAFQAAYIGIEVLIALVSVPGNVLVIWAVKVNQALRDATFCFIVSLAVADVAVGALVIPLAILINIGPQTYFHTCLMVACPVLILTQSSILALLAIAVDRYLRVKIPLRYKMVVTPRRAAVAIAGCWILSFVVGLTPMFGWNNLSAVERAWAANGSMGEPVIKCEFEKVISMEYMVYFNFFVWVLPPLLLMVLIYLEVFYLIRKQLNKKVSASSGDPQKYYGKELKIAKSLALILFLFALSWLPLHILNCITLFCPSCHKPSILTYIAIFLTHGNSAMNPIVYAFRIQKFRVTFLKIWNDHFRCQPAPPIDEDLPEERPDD

[4] = target: T2, A2A-adenosine receptor human recombinant (Homo sapiens, UniProt P29274); test: Radioligand binding assay 1, human recombinant A2A adenosine receptor; settings: human recombinant, [3H]MSX-2; read-out: A2A-adenosine receptor human recombinant [3H] MSX-2 Ki
T2 construct: expressed in transfected cells
T2 sequence (P29274 whole entry): as the sequence (P29274 whole entry) above
Description: (§1) Rat brain preparations were used for A1- and A2A adenosine receptor (AR) and human recombinant cell samples for A1-, A2A- and A3 adenosine receptor radioligand binding studies. Affinity and selectivity was tested in displacement experiments with following radioligands: [^3H]CCPA for A1-adenosine receptors, [^3H]MSX-2 for A2A-receptors and [^3H]PSB-11 for A3-receptors. Results of these experiments are depicted in table 2b (human data) and table 2a (rat data). Radioligand binding test systems are e.g. generally described by Muller et al., Curr. Pharm. Des., 1996, 2, 501 and Weyler et al., ChemMedChem 2006, 1, 891 and references cited therein) These documents are incorporated herein by reference.

[5] = target: T3, A1-adenosine receptor human recombinant (Homo sapiens, UniProt P30542); test: Radioligand binding assay 1, human recombinant A1 adenosine receptor; settings: [3H]CCPA
T3 construct: expressed in transfected cells
T3 sequence (P30542 1-326): T1 sequence (P30542 1-326)
Description: as §1

[6] = CHO-DUKX-SRE-Luci-A1-44 cells, 3.5 μM ADAC
[7] = Ki=IC50/(1+agonist concentration/EC50)

| SMILES | Ki [4] | Ki [5] | also measured |
| --- | --- | --- | --- |
| C#CCn1c(=O)c2c(nc(C#Cc3ccc(OC)c(OC)c3)n2C)n(CCCO)c1=O [drawing 625] |  |  | Catalepsy [1]: 0; Hypersensitivity [1]: 0; Motor Coordination [1]: −; Patterns Activity [1]: ++; Respiration [1]: +++; Stereotypies [1]: +; Temperature [1]: −; Tremor [1]: + |
| C#CCn1c(=O)c2c(nc(C#Cc3cccc(OC)c3)n2C)n(C)c1=O [drawing 617] |  |  | IC50 [2]: 1900 nM; A2A AR Imax [2]: 90%; Ki [2]: 178 nM; A1 AR IC50 [3, 6]: Nosignificantactivitydetected; A1 AR Imax [3]: Nosignificantactivitydetected; A1 AR Ki [3, 7]: Nosignificantactivitydetected |
| C#CCn1c(=O)c2c(nc(C#Cc3ccc(OC)c(OC)c3)n2C)n(C)c1=O [drawing 619] |  |  | IC50 [2]: 600 nM; A2A AR Imax [2]: 95%; Ki [2]: 58 nM; A1 AR IC50 [3, 6]: Nosignificantactivitydetected; A1 AR Imax [3]: Nosignificantactivitydetected; A1 AR Ki [3, 7]: Nosignificantactivitydetected |
| C#CCn1c(=O)c2c(nc(C#Cc3cccc(OCCO)c3)n2C)n(C)c1=O [drawing 557] | 226 ± 62 nM | > 1000 nM |  |
| C#CCn1c(=O)c2c(nc(C#Cc3cccc(OC)c3)n2C)n(C)c1=O [drawing 553] | 608 ± 111 nM | > 10000 nM |  |
| C#CCn1c(=O)c2c(nc(C#Cc3cccc(OCCCN(C)C)c3)n2C)n(C)c1=O [drawing 558] | 11.6 ± 2.1 nM | 1740 ± 546 nM |  |
| C#CCn1c(=O)c2c(nc(C#Cc3ccc(OC)c(OC)c3)n2C)n(CC(C)O)c1=O (centres unmarked) [drawing 578] | 14 ± 4.1 nM | > 1000 nM |  |
| C#CCn1c(=O)c2c(nc(C#Cc3ccc(OC)c(OC)c3)n2C)n(CC)c1=O [drawing 618] |  |  | IC50 [2]: 200 nM; A2A AR Imax [2]: 97%; Ki [2]: 23 nM; IC50 ([3]; CHO-DUKX-SRE-Luci-A1-44 cells, 3.5 μM ADAC, read-out: A1 AR IC50): 3900 nM; A1 AR Imax [3]: 49%; Ki ([3]; Ki=IC50/(1+agonist concentration/EC50), read-out: A1 AR Ki): 854 nM |
| C#CCn1c(=O)c2c(nc(C#Cc3cccc(OC)c3)n2C)n(CCCO)c1=O [drawing 626] |  |  | Catalepsy [1]: 0; Hypersensitivity [1]: +; Motor Coordination [1]: 0; Patterns Activity [1]: +; Respiration [1]: ++; Stereotypies [1]: 0; Temperature [1]: 0; Tremor [1]: 0 |
| C#CCn1c(=O)c2c(nc(C#Cc3ccc(OC)c(OC)c3)n2C)n(CCCOC)c1=O [drawing 581] | 123 ± 62 nM | > 1000 nM |  |
| C#CCn1c(=O)c2c(nc(C#Cc3ccc(OC)c(OC)c3)n2C)n(Cc2cnc[nH]2)c1=O [drawing 593] | 103 nM | > 1000 nM |  |
| C#CCn1c(=O)c2c(nc(C#Cc3ccc(OC)c(OC)c3)n2C)n(CC)c1=O [drawing 624] |  |  | Catalepsy [1]: 0; Hypersensitivity [1]: ++; Motor Coordination [1]: 0; Patterns Activity [1]: +++; Respiration [1]: +++; Stereotypies [1]: ++; Temperature [1]: +; Tremor [1]: 0 |
| CCCn1c(=O)c2[nH]c(C3CCCC3)nc2n(CCC)c1=O [CPX, 8-Cyclopentyl 1,3-diprophylxanthine, reference compound] |  |  | A1 AR Imax [3]: 100% |
| C#CCn1c(=O)c2c(nc(C#Cc3ccc(OC)c(OC)c3)n2C)n(C(C)C)c1=O [drawing 586] | 127 ± 19 nM | > 1000 nM |  |
| C#CCn1c(=O)c2c(nc(C#Cc3ccc(OCC)c(OCC)c3)n2C)n(CC)c1=O [drawing 573] | 83.4 ± 26.5 nM | > 1000 nM |  |
| C#CCn1c(=O)c2c(nc(C#Cc3cccc(OCCOC)c3)n2C)n(C)c1=O [drawing 559] | 28.9 ± 1.3 nM | > 1000 nM |  |
| C#CCn1c(=O)c2c(nc(C#Cc3ccc(OC)c(OC)c3)n2C)n(Cc2cccs2)c1=O [drawing 589] | 416 ± 44 nM | > 1000 nM |  |
| C#CCn1c(=O)c2c(nc(C#Cc3ccc(OC)c(OC)c3)n2C)n(CC(C)C)c1=O [drawing 585] | 200 ± 99 nM | ≥ 1000 nM |  |
| C#CCn1c(=O)c2c(nc(C#Cc3ccc(OC)c(OC)c3)n2C)n(C)c1=O [drawing 554] | 36.4 ± 0.6 nM | > 3000 nM |  |
| C#CCn1c(=O)c2c(nc(C#Cc3ccc(OC)c(OC)c3)n2C)n(Cc2ccoc2)c1=O [drawing 583] | 8.4 ± 6.7 nM | > 1000 nM |  |
| C#CCn1c(=O)c2c(nc(C#Cc3cccc(OC)c3)n2C)n(CC)c1=O [drawing 565] | 64.8 ± 12 nM | > 3000 nM |  |
| C#CCn1c(=O)c2c(nc(C#Cc3ccc(OC)c(OC)c3)n2C)n(CC)c1=O [drawing 567] | 17.7 ± 0.7 nM | > 1000 nM |  |
| C#CCn1c(=O)c2c(nc(C#Cc3ccc(OC)c(OC)c3)n2C)n(CCOC)c1=O [drawing 574] | 55.3 ± 4.3 nM | > 1000 nM |  |
| C#CCn1c(=O)[nH]c2nc(C#Cc3ccc(OC)c(OC)c3)n(C)c2c1=O [drawing 563] | 18.4 ± 3 nM | > 1000 nM |  |
| C#CCn1c(=O)c2c(nc(C#Cc3ccc(OC)c(OC)c3)n2C)n(CCO)c1=O [drawing 575] | 59.8 ± 35.7 nM | > 1000 nM |  |
| C#CCn1c(=O)c2c(nc(C#Cc3ccc(OC)c(OC)c3)n2C)n(CCN(C)C)c1=O [drawing 568] | 51.7 ± 8.7 nM | > 20000 nM |  |
| C#CCn1c(=O)c2c(nc(C#Cc3ccc(OC)c(OC)c3)n2C)n(CC#N)c1=O [drawing 576] | 32.2 ± 20.5 nM | > 1000 nM |  |
| C#CCn1c(=O)c2c(nc(C#Cc3ccc(OC)c(OC)c3)n2C)n(CCCC#N)c1=O [drawing 582] | 58 ± 13.3 nM | > 1000 nM |  |
| C#CCn1c(=O)c2c(nc(C#Cc3ccc(OC)c(OC)c3)n2C)n(CCC)c1=O [drawing 584] | 36.6 ± 8.7 nM | > 1000 nM |  |
| C#CCn1c(=O)c2c(nc(C#Cc3ccc(OC)c(OC)c3)n2C)n(CC(=O)OC)c1=O [drawing 598] | 38.2 ± 8.5 nM | > 1000 nM |  |
